Measured values published in PMC5519579, “Inhibition of PAI-1 Activity by Toddalolactone as a Mechanism for Promoting Blood Circulation and Removing Stasis by Chinese Herb Zanthoxylum nitidum var. tomentosum” (Frontiers in Pharmacology, 2017).

Target: T1, plasminogen activator inhibitor-1 (PAI-1) (Homo sapiens, UniProt P05121)
T1 construct: gene SERPINE1; recombinant human PAI-1
Test: chromogenic uPA/S-2444 assay with recombinant PAI-1; supported by SDS-PAGE of PAI-1/uPA complex and clot lysis assay
Type: biochemical

T1 sequence (P05121 24-402, other chains not shown): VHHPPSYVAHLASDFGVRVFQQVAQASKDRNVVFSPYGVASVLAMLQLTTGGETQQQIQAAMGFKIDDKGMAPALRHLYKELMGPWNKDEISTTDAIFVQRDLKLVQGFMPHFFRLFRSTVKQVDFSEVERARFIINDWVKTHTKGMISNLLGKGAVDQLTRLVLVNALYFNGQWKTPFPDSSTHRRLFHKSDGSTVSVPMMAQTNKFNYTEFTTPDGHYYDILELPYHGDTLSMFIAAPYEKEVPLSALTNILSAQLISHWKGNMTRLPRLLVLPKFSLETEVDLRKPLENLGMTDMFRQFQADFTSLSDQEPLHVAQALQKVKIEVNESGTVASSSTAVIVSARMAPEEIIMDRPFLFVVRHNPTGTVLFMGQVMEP

COc1cc2oc(=O)ccc2c(OC)c1C[C@@H](O)C(C)(C)O (single isomer, unassigned) [Peak 4, toddalolactone]
IC50: 37.3 ± 3.23 µM
